Results from BigSolDB 2.1.

Cn1cc[n+](CCCC[n+]2ccn(C)c2)c1.F[P-](F)(F)(F)(F)F.F[P-](F)(F)(F)(F)F
Details | solubility (mole fraction)
in 2-butanone, 283.15 K | 0.00838
in 2-butanone, 288.15 K | 0.00936
in 2-butanone, 294.15 K | 0.0114
in 2-butanone, 299.15 K | 0.014
in 2-butanone, 304.15 K | 0.0178
in 2-butanone, 309.15 K | 0.0235
in 2-butanone, 315.15 K | 0.0349
in 2-butanone, 320.15 K | 0.0496
in 2-butanone, 325.15 K | 0.0728
in acetophenone, 299.65 K | 0.00127
in acetophenone, 303.65 K | 0.00198
in acetophenone, 307.35 K | 0.00285
in acetophenone, 313.15 K | 0.00472
in acetophenone, 318.15 K | 0.00677
in acetophenone, 323.15 K | 0.00919
in acetophenone, 328.15 K | 0.0117
in acetophenone, 332.15 K | 0.0137
in acetylacetone, 283.15 K | 0.00252
in acetylacetone, 288.15 K | 0.0026
in acetylacetone, 293.15 K | 0.00295
in acetylacetone, 297.45 K | 0.00352
in acetylacetone, 302.65 K | 0.00473
in acetylacetone, 309.15 K | 0.00768
in acetylacetone, 314.15 K | 0.0121
in acetylacetone, 320.15 K | 0.0227
in acetylacetone, 325.15 K | 0.0409
in acetylacetone, 330.15 K | 0.0784
in cyclohexanone, 283.15 K | 0.000563
in cyclohexanone, 288.15 K | 0.0009
in cyclohexanone, 293.15 K | 0.00138
in cyclohexanone, 298.35 K | 0.00206
in cyclohexanone, 302.15 K | 0.00271
in cyclohexanone, 308.65 K | 0.0041
in cyclohexanone, 313.15 K | 0.00529
in cyclohexanone, 318.25 K | 0.00688
in cyclohexanone, 323.15 K | 0.00857
in cyclohexanone, 328.15 K | 0.0105
in cyclohexanone, 333.15 K | 0.0124
in water, 283.15 K | 9.5e-05
in water, 288.45 K | 0.000124
in water, 293.15 K | 0.000156
in water, 298.15 K | 0.000203
in water, 303.65 K | 0.000274
in water, 308.15 K | 0.000348
in water, 313.15 K | 0.000456
in water, 318.35 K | 0.000608
in water, 323.15 K | 0.00079
in water, 328.15 K | 0.00105
in water, 333.15 K | 0.00138
